Test [1] relates to naïve CD4 crt^−/− and crt^+/+ T cells. The experiment in a line: CD62L re-expression after activation with plate bound CD3 and CD28 antibodies (FACS). Type of test: cell-based, mouse. Particulars: crt^−/− and wild-type cells, 38 h. How it is done: FIG. 3: Mitochondrial Ca^2+ uptake during T cell activation leads to ATP synthesis and release. • a) ATP synthesis at different time points after T cell activation with CD3 antibodies in crt^−/− and crt^+/+ sorted naïve CD4^+ T cells (see Example 2). • b) ATP production upon T cell activation in the absence (control) or presence of the ATP synthetase inhibitor oligomycin. • c) FACS profile of CD62L expression on the surface of sorted naïve CD4 crt^−/− and crt^+/+ T cells at 38 h following activation with plate bound CD3 and CD28 antibodies. The same experiment was performed in the presence of oATP. • d) Naïve CD4^+ T cells were stained with the nucleotide binding compound quinacrine (see Example 2). The homogenous cytosolic staining indicates the absence of secretory vesicles containing ATP. • e) Subcellular fractionation of non-stimulated and activated naïve T cells on a continuous sucrose gradient (see Example 2). ATP was detected only in fractions containing also the cytosolic protein Zap-70 and not in those characterized by the small vesicular marker cellubrevin.
This shedding is thought to be inhibited by the P2X receptor antagonist oATP (Gu et al., Blood 92:946-951 (1998)). In vitro T cell activation of CD4 naïve T cells causes shedding of CD62L, which is progressively re-expressed following TCR triggering.

Another test concerns ERK. The experiment in a line: ERK phosphorylation time course after CD3 stimulation, TCR signaling blocked with PP2 at 30 min. The class given is cell-based, mouse. Particulars: added in combination with PP2. How it is done: After 30 min of stimulation, cells were either left untreated (first panel on the left), or treated with the src-like kinase inhibitor PP2 either alone (second panel) or in combination with oATP (third panel) or ARL (fourth panel).
In order to distinguish between TCR dependent and independent ERK activation, TCR signaling was blocked at 30 min after CD3 activation with the tyrosine kinase inhibitor PP2, which inhibits TCR dependent Ick/fyn src-like kinase activity.

In a further test the test system is mouse T cells. Nature of the test: IL-2 secretion by ELISA. The class given is cell-based. For orientation: An ELISA detects its analyte on a solid surface through an enzyme-linked reagent.
The next test concerns crt^−/− FLC. Nature of the test: Graft-versus-host disease-like phenotype of crt^−/− fetal liver chimeras. The class given is in vivo, mouse. How it is done:
Phenotype of crt^−/− FLC before treatment and after daily intravenous treatment with PBS or 6 mM oATP (100 μl) for 2 weeks (see Example 16).
Histopathological evaluation of skin biopsies executed in a blinded fashion. The graphs show selected examples of dramatic results seen with oATP treatment (see Example 16).
Recombinase-deficient Balb/c mice were reconstituted with hematopoietic progenitors from fetal liver of calreticulin (crt)^−/− and +/+E13 embryos (FIG. 21). The phenotype of the resulting crt^−/− fetal liver chimera (FLC), which mimics graft-versus-host disease (GVHD) (see, e.g., Porcellini et al., J Exp Med 203:461-471 (2006)), was assessed at weeks 8, 10 and 12 after transfer and compared to the phenotype of the crt^+/+ FLC at week 12.
crt^+/+ and crt^−/− FLCs received daily intravenous treatment with PBS or 6 mM oATP (100 μL) for two weeks.

In another test the test system is human T cells. Nature of the test: Proliferation of CFSE-loaded T cells, plate-bound anti-CD3/28 (FACS). The class given is cell-based. Particulars: 100 μM oATP or 200 μM of PX10 peptide, four days. How it is done:
Our results point to a role for pannexin hemichannels in ATP release in T cells. […] CFSE-loaded human T cells were stimulated with plate-bound anti-CD3/28 antibodies in the presence of 100 μM oATP or 200 μM of PX10 peptide. Four days later, the proliferation was measured by FACS analysis.

In test [2] the test system is T cells stimulated by anti-CD3 under Th17 skewing conditions. The experiment in a line: Th17 skewing conditions (TGFβ and IL-6), Foxp3 and RORγT expression. The class given is cell-based. As to the method:
Treatment with oATP at 100 μM inhibits Th17 differentiation and promotes Foxp3 expression. […] The absolute number of CD4^+CD25^high cells expressing Foxp3 by FACS analysis was increased (FIG. 12B). Moreover, the de-differentiation of sorted CD4^+CD25^high natural Treg cells to the Th17 lineage following stimulation (Koenen et al., Blood 112(6):2340-2352 (2008)) was prevented by oATP at 100 μM (FIG. 12C).

Another test deals with naive CD4 T cells. The experiment in a line: T cell proliferation by CFSE dilution, plate-bound CD3 and CD28 mAbs. Type of test: cell-based, mouse.
In the next test the test system is naïve CD4^+ T cells. The experiment in a line: IL-2 ELISA in culture supernatants, plate-bound CD3 and CD28 stimulation. The class given is cell-based, mouse. The note with it: versus untreated cells, 48 h. The source says:
An inhibitory effect of oATP on peripheral blood T cell proliferation has been described (Baricordi et al., Blood 87:682-690 (1996)). […] We therefore hypothesize that ATP released from activated T cell is part of an autocrine loop, which plays an essential role in productive T cell activation.

Another test relates to MAPK. Nature of the test: Protracted MAPK (p38, Erk) activation after 16 h CD3 stimulation. Particulars: crt^−/− T cells, CD3 antibodies 16 h. The class given is cell-based, mouse.
The next test relates to mouse model of IBD. The experiment in a line: IBD model with insufficient number of adoptively transferred Treg cells. The class given is in vivo.
[3] abbreviates: Th17 skewing conditions, oATP 100 μM.

“Also recorded” adds a separate entry of the source.

Take `Nc1ncnc2c1ncn2[C@@H](C=O)O[C@@H](C=O)COP(=O)(O)OP(=O)(O)OP(=O)(O)O` [oATP]: in [1], the “CD62L re-expression after activation” value was “enhanced and identical re-expression efficiency”. The “ERK phosphorylation / activity” value in the test with ERK is reported as “significant inhibition; also recorded: almost completely abolished”. The IL-2 secretion result in the test on mouse T cells is on record as “strongly inhibited”. In addition, the “histopathological evaluation of skin biopsies (inflammation and epidermal hyperplasia)” value in the test on crt^−/− FLC (blinded) is reported as “histological improvement”. The blepharitis result in the test on crt^−/− FLC (daily i.v. 6 mM oATP (100 μL) for two weeks) is “dramatically ameliorated”. Moreover, in the test on human T cells, the T cell proliferation result is on record as “strongly inhibited”. In addition, in test [2] (Th17 skewing conditions), the “absolute number of CD4^+CD25^high cells expressing Foxp3 (FACS)” value is given as “increased”. For the same compound, in [2] (setting [3]), the “expression of Foxp3 (quantitative RT-PCR)” value is recorded as “gradually increased” and the “expression of RORγT (quantitative RT-PCR)” value is on record as “suppressing”. In addition, in [2] (oATP 100 μM), the Th17 differentiation entry is recorded as “inhibits” and the “de-differentiation of sorted CD4^+CD25^high natural Treg cells to the Th17 lineage” value is “prevented”. In the test with naive CD4 T cells, the “T cell proliferation (CFSE dilution)” value is “almost completely inhibited”. Besides, the “IL-2 in the cell culture supernatant” value in the test on naïve CD4^+ T cells was “significant reduction”. Moreover, the “prolonged activation of MAPK (p38 MAPK and Erk)” value with MAPK is reported as “almost completely abolished”. The “Foxp3 expression in Treg cells” value with mouse model of IBD (day 28, daily 100 μl of 3 mM oATP i.v. from day 14) is “increased”. Further, in the test on mouse model of IBD (mouse, in vivo), the bowel inflammation entry is given as “no signs of bowel inflammation”; the “effector/memory T cells in mesenteric lymph nodes” value is reported as “reduced counts”; the “ratio of Treg/EM cells in mesenteric lymph nodes” value is on record as “not significantly changed”; the “spleen and mesenteric lymph nodes size” value was “no increase”.

The values are drawn from US20110076258A1, “METHODS OF MODULATING T CELL- DEPENDENT IMMUNE RESPONSES” (Converge Biotech Inc., priority 2008, published 2011).
